From ChEMBL document CHEMBL1201861, “Genomics of Drug Sensitity in Cancer screening data, Wellcome Trust Sanger Institute”
Structures can show the parent of a compound that is named as a salt.

What was measured:
HLE = assay: cells; format: functional, cell-based, Homo sapiens
Description: SANGER: Inhibition of human HLE cell growth in a cell viability assay.

SCC-25 = assay: cells; format: functional, cell-based, Homo sapiens;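 note: growth inhibition of SCC-25 cells, measured with a cell viability assay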
Description: SANGER: Inhibition of human SCC-25 cell growth in a cell viability assay.

HO-1-N-1 = assay: cells; format: functional, cell-based, Homo sapiens;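 note: growth inhibition of human HO-1-N-1 cells, read out with a cell viability assay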
Description: SANGER: Inhibition of human HO-1-N-1 cell growth in a cell viability assay.

OAW-28 = assay: cells; format: functional, cell-based, Homo sapiens;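 note: growth inhibition of OAW-28 cells, read out with a cell viability assay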
Description: SANGER: Inhibition of human OAW-28 cell growth in a cell viability assay.

T98G = assay: cells; format: functional, cell-based, Homo sapiens;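 note: growth inhibition of T98G cells, read out by a cell viability assay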
Description: SANGER: Inhibition of human T98G cell growth in a cell viability assay.

HCC1395 = assay: cells; format: functional, cell-based, Homo sapiens;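 note: growth inhibition of HCC1395 cells, read out by a cell viability assay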
Description: SANGER: Inhibition of human HCC1395 cell growth in a cell viability assay.

HCC1806 = assay: cells; format: functional, cell-based, Homo sapiens;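 note: growth inhibition of the cancer cell line, determined with a cell viability assay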
Description: SANGER: Inhibition of human HCC1806 cell growth in a cell viability assay.

647-V = assay: cells; format: functional, cell-based, Homo sapiens;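 note: growth inhibition of 647-V cells, read out with a cell viability assay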
Description: SANGER: Inhibition of human 647-V cell growth in a cell viability assay.

Huh-7 = assay: cells; format: functional, cell-based, Homo sapiens;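 note: HuH-7 cell growth inhibition, read out with a cell viability assay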
Description: SANGER: Inhibition of human HuH-7 cell growth in a cell viability assay.

HSC-4 = assay: cells; format: functional, cell-based, Homo sapiens;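 note: growth inhibition of human HSC-4 cells, read out with a cell viability assay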
Description: SANGER: Inhibition of human HSC-4 cell growth in a cell viability assay.

RERF-LC-MS = assay: cells; format: functional, cell-based, Homo sapiens;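 note: growth inhibition of human RERF-LC-MS cells, read out by a cell viability assay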
Description: SANGER: Inhibition of human RERF-LC-MS cell growth in a cell viability assay.

KYSE-270 = assay: cells; format: functional, cell-based, Homo sapiens;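 note: cell growth inhibition measured with a viability assay in the human KYSE-270 line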
Description: SANGER: Inhibition of human KYSE-270 cell growth in a cell viability assay.

A549 = assay: cells; format: functional, cell-based, Homo sapiens; details: Homo sapiens, A549;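 note: growth inhibition of A549 cells, read out with a cell viability assay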
Description: SANGER: Inhibition of human A549 cell growth in a cell viability assay.

A673 = assay: cells; format: functional, cell-based, Homo sapiens;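 note: growth inhibition of human A673 cells, read out through a cell viability assay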
Description: SANGER: Inhibition of human A673 cell growth in a cell viability assay.

SNU-449 = assay: cells; format: functional, cell-based, Homo sapiens
Description: SANGER: Inhibition of human SNU-449 cell growth in a cell viability assay.

UMUC3 = assay: cells; format: functional, cell-based, Homo sapiens;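 note: growth inhibition of human UM-UC-3 cells, read out with a cell viability assay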
Description: SANGER: Inhibition of human UM-UC-3 cell growth in a cell viability assay.

U2OS = assay: cells; format: functional, cell-based, Homo sapiens, U-2-OS;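 note: growth inhibition of human U-2-OS cells, determined with a cell viability assay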
Description: SANGER: Inhibition of human U-2-OS cell growth in a cell viability assay.

CFPAC-1 = assay: cells; format: functional, cell-based, Homo sapiens; details: Homo sapiens, CFPAC-1;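 note: cell viability readout used to gauge suppression of CFPAC-1 cell proliferation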
Description: SANGER: Inhibition of human CFPAC-1 cell growth in a cell viability assay.

Hs-578T = assay: cells; format: functional, cell-based, Homo sapiens
Description: SANGER: Inhibition of human Hs-578-T cell growth in a cell viability assay.

NCI-H2122 = assay: cells; format: functional, cell-based, Homo sapiens
Description: SANGER: Inhibition of human NCI-H2122 cell growth in a cell viability assay.

NCI-H1563 = assay: cells; format: functional, cell-based, Homo sapiens;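 note: growth inhibition of human NCI-H1563 cells, read out with a cell viability assay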
Description: SANGER: Inhibition of human NCI-H1563 cell growth in a cell viability assay.

A-427 = assay: cells; format: functional, cell-based, Homo sapiens;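 note: growth inhibition of human A-427 cells, read out by a cell viability assay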
Description: SANGER: Inhibition of human A427 cell growth in a cell viability assay.

G-402 = assay: cells; format: functional, cell-based, Homo sapiens
Description: SANGER: Inhibition of human G-402 cell growth in a cell viability assay.

A2780 = assay: cells; format: functional, cell-based, Homo sapiens;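 note: growth inhibition of A2780 cells, read out with a cell viability assay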
Description: SANGER: Inhibition of human A2780 cell growth in a cell viability assay.

MIA PaCa-2 = assay: cells; format: functional, cell-based, Homo sapiens;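 note: growth inhibition of MIA PaCa-2 cells, read out with a cell viability assay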
Description: SANGER: Inhibition of human MIA-PaCa-2 cell growth in a cell viability assay.

SKG-IIIa = assay: cells; format: functional, cell-based, Homo sapiens
Description: SANGER: Inhibition of human SKG-IIIa cell growth in a cell viability assay.

YT = assay: cells; format: functional, cell-based, Homo sapiens
Description: SANGER: Inhibition of human YT cell growth in a cell viability assay.

MDA-MB-231 = assay: cells; format: functional, cell-based, Homo sapiens
Description: SANGER: Inhibition of human MDA-MB-231 cell growth in a cell viability assay.

NCI-H596 = assay: cells; format: functional, cell-based, Homo sapiens;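 note: growth inhibition of NCI-H596 cells, read out with a cell viability assay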
Description: SANGER: Inhibition of human NCI-H596 cell growth in a cell viability assay.

JIYOYE = assay: cells; format: functional, cell-based, Homo sapiens
Description: SANGER: Inhibition of human JiyoyeP-2003 cell growth in a cell viability assay.

GCT = assay: cells; format: functional, cell-based, Homo sapiens;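 note: GCT cell line proliferation inhibition, read out with a cell viability assay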
Description: SANGER: Inhibition of human GCT cell growth in a cell viability assay.

SW1417 = assay: cells; format: functional, cell-based, Homo sapiens;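 note: growth inhibition of human SW1417 cells, read out with a cell viability assay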
Description: SANGER: Inhibition of human SW1417 cell growth in a cell viability assay.

GDM-1 = assay: cells; format: functional, cell-based, Homo sapiens;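 note: cell viability readout used to measure growth inhibition of human GDM-1 cells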
Description: SANGER: Inhibition of human GDM-1 cell growth in a cell viability assay.

SK-OV-3 = assay: cells; format: functional, cell-based, Homo sapiens;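 note: growth inhibition of SK-OV-3 human cells, read out with a cell viability assay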
Description: SANGER: Inhibition of human SK-OV-3 cell growth in a cell viability assay.

NCI-H2030 = assay: cells; format: functional, cell-based, Homo sapiens;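 note: growth inhibition of human NCI-H2030 cells, read out by a cell viability assay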
Description: SANGER: Inhibition of human NCI-H2030 cell growth in a cell viability assay.

P31-FUJ = assay: cells; format: functional, cell-based, Homo sapiens;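 note: growth inhibition of P31-FUJ cells, read out with a viability assay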
Description: SANGER: Inhibition of human P31-FUJ cell growth in a cell viability assay.

L-540 = assay: cells; format: functional, cell-based, Homo sapiens;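 note: growth inhibition of the human L-540 cell line, read out with a viability assay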
Description: SANGER: Inhibition of human L-540 cell growth in a cell viability assay.

AU565 = assay: cells; format: functional, cell-based, Homo sapiens;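 note: cell viability assay measuring growth inhibition of human AU565 cells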
Description: SANGER: Inhibition of human AU565 cell growth in a cell viability assay.

BOKU = assay: cells; format: functional, cell-based, Homo sapiens
Description: SANGER: Inhibition of human BOKU cell growth in a cell viability assay.

ECC4 = assay: cells; format: functional, cell-based, Homo sapiens;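 note: growth inhibition of ECC4 cells, read out with a cell viability assay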
Description: SANGER: Inhibition of human ECC4 cell growth in a cell viability assay.

NCI-H522 = assay: cells; format: functional, cell-based, Homo sapiens;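 note: cell viability assay measuring growth inhibition of human NCI-H522 cells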
Description: SANGER: Inhibition of human NCI-H522 cell growth in a cell viability assay.

THP-1 = assay: cells; format: functional, cell-based, Homo sapiens;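 note: growth inhibition of THP-1 cells, read out via a cell viability assay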
Description: SANGER: Inhibition of human THP-1 cell growth in a cell viability assay.

RPMI 8402 = assay: SANGER: Inhibition of human RPMI-8402 cell growth in a cell viability assay.; format: functional, cell-based; details: read-out: IC50
IST-SL2 = assay: cells; format: functional, cell-based, Homo sapiens;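 note: growth inhibition of human IST-SL2 cells, read out by a cell viability assay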
Description: SANGER: Inhibition of human IST-SL2 cell growth in a cell viability assay.

BL-70 = assay: SANGER: Inhibition of human BL-70 cell growth in a cell viability assay.; format: functional, cell-based
MCF7 = assay: cells; format: functional, cell-based, Homo sapiens;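 note: growth inhibition of human MCF7 cells, read out with a cell viability assay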
Description: SANGER: Inhibition of human MCF7 cell growth in a cell viability assay.

DG-75 = assay: cells; format: functional, cell-based, Homo sapiens;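 note: growth inhibition of DG-75 cells, read out with a cell viability assay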
Description: SANGER: Inhibition of human DG-75 cell growth in a cell viability assay.

NCI-H187 = assay: cells; format: functional, cell-based, Homo sapiens;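 note: growth inhibition of NCI-H187 cells, read out as cell viability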
Description: SANGER: Inhibition of human NCI-H187 cell growth in a cell viability assay.

COLO-680N = assay: cells; format: functional, cell-based, Homo sapiens;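 note: cell viability assay used to measure inhibition of COLO-680N cell growth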
Description: SANGER: Inhibition of human COLO-680N cell growth in a cell viability assay.

CN(C)C(=N)NC(=N)N [METFORMIN]
IC50 (HLE; Homo sapiens, HLE): 9860 µM | IC50 (SCC-25; Homo sapiens, SCC-25): 12200 µM | IC50 (HO-1-N-1; Homo sapiens, HO-1-N-1): 13200 µM | IC50 (OAW-28; Homo sapiens, OAW-28): > 20000 µM | IC50 (T98G; Homo sapiens, T98G): > 20000 µM | IC50 (HCC1395; Homo sapiens, HCC1395): > 20000 µM | IC50 (HCC1806; Homo sapiens, HCC1806): > 20000 µM | IC50 (647-V; Homo sapiens, 647-V): > 20000 µM | IC50 (Huh-7; Homo sapiens, Huh-7): 15500 µM | IC50 (HSC-4; Homo sapiens, HSC-4): 5480 µM | IC50 (RERF-LC-MS; Homo sapiens, RERF-LC-MS): 14400 µM | IC50 (KYSE-270; Homo sapiens, KYSE-270): > 20000 µM | IC50 (A549): 4.54 mM | IC50 (A673; Homo sapiens, A673): 19200 µM | IC50 (SNU-449; Homo sapiens, SNU-449): > 20000 µM | IC50 (UMUC3; Homo sapiens, UMUC3): 12800 µM | IC50 (U2OS; Homo sapiens, U2OS): > 20000 µM | IC50 (CFPAC-1): > 20 mM | IC50 (Hs-578T; Homo sapiens, Hs-578T): > 20000 µM | IC50 (NCI-H2122; Homo sapiens, NCI-H2122): > 20000 µM | IC50 (NCI-H1563; Homo sapiens, NCI-H1563): 8610 µM | IC50 (A-427; Homo sapiens, A-427): 7170 µM | IC50 (G-402; Homo sapiens, G-402): 11300 µM | IC50 (A2780; Homo sapiens, A2780): 4880 µM | IC50 (MIA PaCa-2; Homo sapiens, MIA PaCa-2): > 20000 µM | IC50 (SKG-IIIa; Homo sapiens, SKG-IIIa): > 20000 µM

COC1=CC(c2cc3ccccc3[nH]2)=N/C1=C\c1[nH]c(C)cc1C [OBATOCLAX MESYLATE]
IC50 (HLE; Homo sapiens, HLE): 0.169 µM | IC50 (SCC-25; Homo sapiens, SCC-25): 0.0449 µM | IC50 (YT; Homo sapiens, YT): 73.4 nM | IC50 (MDA-MB-231; Homo sapiens, MDA-MB-231): 801 nM | IC50 (HO-1-N-1; Homo sapiens, HO-1-N-1): 0.0925 µM | IC50 (NCI-H596; Homo sapiens, NCI-H596): 0.236 µM | IC50 (JIYOYE; Homo sapiens, JIYOYE): 203 nM | IC50 (OAW-28; Homo sapiens, OAW-28): 0.202 µM | IC50 (GCT; Homo sapiens, GCT): 2.59 µM | IC50 (T98G; Homo sapiens, T98G): 5.07 µM | IC50 (SW1417; Homo sapiens, SW1417): < 0.0625 µM | IC50 (HCC1395; Homo sapiens, HCC1395): 1.93 µM | IC50 (GDM-1; Homo sapiens, GDM-1): 685 nM | IC50 (HCC1806; Homo sapiens, HCC1806): 0.124 µM | IC50 (647-V; Homo sapiens, 647-V): 0.104 µM | IC50 (Huh-7; Homo sapiens, Huh-7): 0.379 µM | IC50 (HSC-4; Homo sapiens, HSC-4): 0.667 µM | IC50 (SK-OV-3; Homo sapiens, SK-OV-3): 524 nM | IC50 (NCI-H2030; Homo sapiens, NCI-H2030): 227 nM | IC50 (RERF-LC-MS; Homo sapiens, RERF-LC-MS): 1.06 µM | IC50 (P31-FUJ; Homo sapiens, P31-FUJ): > 16 µM | IC50 (L-540; Homo sapiens, L-540): 0.216 µM | IC50 (AU565; Homo sapiens, AU565): 425 nM | IC50 (KYSE-270; Homo sapiens, KYSE-270): 0.0298 µM | IC50 (A673; Homo sapiens, A673): 0.752 µM | IC50 (BOKU; Homo sapiens, BOKU): 1280 nM | IC50 (SNU-449; Homo sapiens, SNU-449): 0.208 µM | IC50 (UMUC3; Homo sapiens, UMUC3): 0.291 µM | IC50 (U2OS; Homo sapiens, U2OS): > 16 µM | IC50 (ECC4; Homo sapiens, ECC4): 5.09 µM | IC50 (NCI-H522; Homo sapiens, NCI-H522): 181 nM | IC50 (THP-1; Homo sapiens, THP-1): 0.02 µM | IC50 (RPMI 8402; Homo sapiens, RPMI 8402): 0.0186 µM | IC50 (IST-SL2; Homo sapiens, IST-SL2): 94.7 nM | IC50 (Hs-578T; Homo sapiens, Hs-578T): 0.183 µM | IC50 (NCI-H2122; Homo sapiens, NCI-H2122): 0.0938 µM | IC50 (BL-70; Homo sapiens, BL-70): 0.063 µM | IC50 (NCI-H1563; Homo sapiens, NCI-H1563): > 16 µM | IC50 (MCF7; Homo sapiens, MCF7): < 62.5 nM | IC50 (A-427; Homo sapiens, A-427): 0.0851 µM | IC50 (G-402; Homo sapiens, G-402): 0.565 µM | IC50 (DG-75; Homo sapiens, DG-75): 6.89 µM | IC50 (A2780; Homo sapiens, A2780): 0.0208 µM | IC50 (NCI-H187; Homo sapiens, NCI-H187): 0.00593 mM | IC50 (COLO-680N; Homo sapiens, COLO-680N): 50.5 nM | IC50 (MIA PaCa-2; Homo sapiens, MIA PaCa-2): 0.233 µM | IC50 (SKG-IIIa; Homo sapiens, SKG-IIIa): 4.68 µM

BLEOMYCIN
IC50 (HLE; hle): 4 µM | IC50 (SCC-25; scc-25): 0.415 µM | IC50 (YT; yt): 1320 nM | IC50 (MDA-MB-231; mda-mb-231): 273 nM | IC50 (HO-1-N-1; ho-1-n-1): 4.42 µM | IC50 (NCI-H596; nci-h596): 13.6 µM | IC50 (JIYOYE; jiyoye): 3380 nM | IC50 (OAW-28; oaw-28): 9.21 µM | IC50 (GCT; gct): 4.99 µM | IC50 (T98G; t98g): 63.7 µM | IC50 (SW1417; sw1417): 249 µM | IC50 (HCC1395; hcc1395): 0.501 µM | IC50 (GDM-1; gdm-1): 228 nM | IC50 (HCC1806; hcc1806): 0.00854 µM | IC50 (647-V; 647-v): 1.73 µM | IC50 (Huh-7; huh-7): 2.43 µM | IC50 (HSC-4; hsc-4): 153 µM | IC50 (SK-OV-3; sk-ov-3): 4880 nM | IC50 (NCI-H2030; nci-h2030): 5220 nM | IC50 (RERF-LC-MS; rerf-lc-ms): 48.7 µM | IC50 (P31-FUJ; p31-fuj): 460 µM | IC50 (L-540; l-540): 23.5 µM | IC50 (AU565; au565): 2050 nM | IC50 (KYSE-270; kyse-270): 0.717 µM | IC50 (A673; a673): 10.5 µM | IC50 (BOKU; boku): 137 nM | IC50 (SNU-449; snu-449): 0.389 µM | IC50 (UMUC3; umuc3): 0.956 µM | IC50 (U2OS; u-2-os): 265 µM | IC50 (ECC4; ecc4): 56.7 µM | IC50 (NCI-H522; nci-h522): 426 nM | IC50 (THP-1; thp-1): 92.5 µM | IC50 (RPMI 8402; rpmi-8402): 30.7 µM | IC50 (IST-SL2; ist-sl2): 0.173 nM | IC50 (Hs-578T; hs-578-t): 344 µM | IC50 (NCI-H2122; nci-h2122): 0.51 µM | IC50 (BL-70; bl-70): 1650 µM | IC50 (NCI-H1563; nci-h1563): 20.6 µM | IC50 (MCF7; mcf7): 1170 nM | IC50 (A-427; a-427): 0.000118 µM | IC50 (G-402; g-402): 0.0765 µM | IC50 (DG-75; dg-75): 16.9 µM | IC50 (A2780; a2780): 0.22 µM | IC50 (NCI-H187; nci-h187): 8.79 mM | IC50 (COLO-680N; colo-680n): 5760 nM | IC50 (MIA PaCa-2; mia paca-2): 0.111 µM | IC50 (SKG-IIIa; skg-iiia): 136 µM
